According to ChEMBL document CHEMBL3817739, “Synthesis and cytotoxic evaluation of several oleanolic aciduracil/thymine conjugates” (Medchemcomm, 2016):
Calls of active or inactive are those of the source. The rule behind the calls is not given here.

Legend:
[1] = test system: HepG2; experiment: Cytotoxicity against human HepG2 cells assessed as inhibition of cell proliferation after 72 hrs by MTT assay; type: functional, cell-based; details: HepG2, 72 h
[2] = test system: A549; experiment: Cytotoxicity against human A549 cells assessed as inhibition of cell proliferation after 72 hrs by MTT assay; type: functional, cell-based; details: A549, 72 h
[3] = Cytotoxicity against human BGC823 cells assessed as inhibition of cell proliferation after 72 hrs by MTT assay; type: functional, cell-based; details: BGC-823, 72 h
[4] = test system: MCF7; experiment: Cytotoxicity against human MCF7 cells assessed as inhibition of cell proliferation after 72 hrs by MTT assay; type: functional, cell-based; details: MCF7, 72 h
[5] = Cytotoxicity against human PC3 cells assessed as inhibition of cell proliferation after 72 hrs by MTT assay; type: functional, cell-based, PC-3; details: Homo sapiens, PC-3, 72 h; read-out: IC50
[6] = test system: HepG2; experiment: Induction of morphological changes in human HepG2 cells assessed as chromatin condensation and fragmentation at 2 to 4 uM after 24 hrs by acridine orange/ethidium bromide double staining based fluorescence microscopy; type: functional, cell-based
[7] = test system: HepG2; experiment: Induction of apoptosis in human HepG2 cells assessed as karyopyknosis and chromatin condensation at 2 to 4 uM after 24 hrs by Hoechst 33258 staining based fluorescence microscopy; type: functional, cell-based
[8] = test system: HepG2; experiment: Induction of apoptosis in human HepG2 cells assessed as viable cells at 2 uM after 24 hrs by Annexin V-FITC/propidium iodide staining based flow cytometry (reference value: 93.2%); type: functional; details: HepG2, 24 h, read-out: Activity
[9] = test system: HepG2; experiment: Induction of apoptosis in human HepG2 cells assessed as early apoptotic cells at 2 uM after 24 hrs by Annexin V-FITC/propidium iodide staining based flow cytometry (reference value: 1.36%); type: functional
[10] = test system: HepG2; experiment: Induction of apoptosis in human HepG2 cells assessed as late apoptotic cells at 2 uM after 24 hrs by Annexin V-FITC/propidium iodide staining based flow cytometry (reference value: 2.7%); type: functional
[11] = test system: HepG2; experiment: Induction of apoptosis in human HepG2 cells assessed as necrotic cells at 2 uM after 24 hrs by Annexin V-FITC/propidium iodide staining based flow cytometry (reference value: 2.7%); type: functional
[12] = test system: HepG2; experiment: Induction of apoptosis in human HepG2 cells assessed as viable cells at 4 uM after 24 hrs by Annexin V-FITC/propidium iodide staining based flow cytometry (reference value: 93.2%); type: functional; details: HepG2, 24 h, read-out: Activity
[13] = test system: HepG2; experiment: Induction of apoptosis in human HepG2 cells assessed as early apoptotic cells at 4 uM after 24 hrs by Annexin V-FITC/propidium iodide staining based flow cytometry (reference value: 1.36%); type: functional
[14] = test system: HepG2; experiment: Induction of apoptosis in human HepG2 cells assessed as late apoptotic cells at 4 uM after 24 hrs by Annexin V-FITC/propidium iodide staining based flow cytometry (reference value: 2.7%); type: functional
[15] = test system: HepG2; experiment: Induction of apoptosis in human HepG2 cells assessed as necrotic cells at 4 uM after 24 hrs by Annexin V-FITC/propidium iodide staining based flow cytometry (reference value: 2.7%); type: functional
[16] = test system: HepG2; experiment: Cell cycle arrest in human HepG2 cells assessed as accumulation at G1 phase at 2 uM after 48 hrs by propidium iodide staining based flow cytometry (reference value: 60.65%); type: functional
[17] = test system: HepG2; experiment: Cell cycle arrest in human HepG2 cells assessed as accumulation at G2/M phase at 2 uM after 48 hrs by propidium iodide staining based flow cytometry (reference value: 13.83%); type: functional
[18] = test system: HepG2; experiment: Cell cycle arrest in human HepG2 cells assessed as accumulation at S phase at 2 uM after 48 hrs by propidium iodide staining based flow cytometry (reference value: 25.52%); type: functional
[19] = test system: HepG2; experiment: Cell cycle arrest in human HepG2 cells assessed as accumulation at G1 phase at 3 uM after 48 hrs by propidium iodide staining based flow cytometry (reference value: 60.65%); type: functional
[20] = test system: HepG2; experiment: Cell cycle arrest in human HepG2 cells assessed as accumulation at G2/M phase at 3 uM after 48 hrs by propidium iodide staining based flow cytometry (reference value: 13.83%); type: functional
[21] = test system: HepG2; experiment: Cell cycle arrest in human HepG2 cells assessed as accumulation at S phase at 3 uM after 48 hrs by propidium iodide staining based flow cytometry (reference value: 25.52%); type: functional
[22] = test system: HepG2; experiment: Cell cycle arrest in human HepG2 cells assessed as accumulation at G1 phase at 4 uM after 48 hrs by propidium iodide staining based flow cytometry (reference value: 60.65%); type: functional
[23] = test system: HepG2; experiment: Cell cycle arrest in human HepG2 cells assessed as accumulation at G2/M phase at 4 uM after 48 hrs by propidium iodide staining based flow cytometry (reference value: 13.83%); type: functional
[24] = test system: HepG2; experiment: Cell cycle arrest in human HepG2 cells assessed as accumulation at S phase at 4 uM after 48 hrs by propidium iodide staining based flow cytometry (reference value: 25.52%); type: functional
[25] = test system: HepG2; experiment: Disruption of mitochondrial membrane potential in human HepG2 cells assessed as mitochondrial membrane potential at 2 uM after 24 hrs by Rhodamine 123 staining based flow cytometry (reference value: 86.2%); type: functional
[26] = test system: HepG2; experiment: Disruption of mitochondrial membrane potential in human HepG2 cells assessed as mitochondrial membrane potential at 3 uM after 24 hrs by Rhodamine 123 staining based flow cytometry (reference value: 86.2%); type: functional
[27] = test system: HepG2; experiment: Disruption of mitochondrial membrane potential in human HepG2 cells assessed as mitochondrial membrane potential at 4 uM after 24 hrs by Rhodamine 123 staining based flow cytometry (reference value: 86.2%); type: functional
[28] = test system: HepG2; experiment: Induction of apoptosis in human HepG2 cells assessed as caspase 3 activation at 4 uM using FITC-DEVD-FMK as probe after 24 hrs by flow cytometry (reference value: 3.3%); type: functional
[29] = test system: HepG2; experiment: Induction of apoptosis in human HepG2 cells assessed as caspase 9 activation at 4 uM using FITC-LEHD-FMK as probe after 24 hrs by flow cytometry (reference value: 4.4%); type: functional
[30] = test system: HepG2; experiment: Disruption of mitochondrial membrane potential in human HepG2 cells after 24 hrs by Rhodamine 123 staining based flow cytometry; type: functional, cell-based

Structure (SMILES): CC1(C)CC[C@]2(C(=O)OCCCCCCn3ccc(=O)[nH]c3=O)CC[C@]3(C)C(=CC[C@@H]4[C@@]5(C)CC[C@H](O)C(C)(C)[C@@H]5CC[C@]43C)[C@@H]2C1
- IC50 [1]: 3980 nM
- IC50 [2]: 3160 nM
- IC50 [3]: 1280 nM
- IC50 [4]: 2750 nM
- IC50 [5]: 180 nM
- Activity [6]: Active
- Activity [7]: Active
- viability at 2 µM [8]: 88%
- Activity [9]: 1.91%
- Activity [10]: 7.75%
- Activity [11]: 2.36%
- viability at 4 µM [12]: 76.1%
- Activity [13]: 1.83%
- Activity [14]: 17.7%
- Activity [15]: 4.32%
- Activity [16]: 92.75%
- Activity [17]: 0.74%
- Activity [18]: 6.51%
- Activity [19]: 88.09%
- Activity [20]: 1.73%
- Activity [21]: 10.18%
- Activity [22]: 82.48%
- Activity [23]: 3.25%
- Activity [24]: 14.27%
- Activity [25]: 77.7%
- Activity [26]: 67%
- Activity [27]: 49.4%
- Activity [28]: 31%
- Activity [29]: 27.9%
- Activity [30]: Dose-dependent effect
